Test: Human HepG2 cell viability assay in 384 well format
Type: toxicity, cell-based
Parameters: dose 125 nL, time 70.5 hour; cytotoxicity at 70.5 h: concentration not given beside the values
Conditions: HepG2 cells, read-out: Inhibition

Structure (SMILES) | cytotoxicity at 70.5 h [%]
Cn1cc(CCCN2CCCC(c3cc(C(F)(F)F)[nH]n3)C2)cn1 (stereo not drawn) | 6.94
Cc1nccn1-c1ccc(CNS(=O)(=O)N2CCCC(C)C2)cn1 (stereo not drawn) | -4.59
CS(=O)(=O)Cc1nc(CNc2c(F)cc(F)cc2F)cs1 | -2.82
CC(C)c1csc(C(=O)N2CCCC(Cn3cc(CO)nn3)C2)n1 (stereo not drawn) | -0.0869
COc1cccc(C(O)Cn2ncc3ncccc3c2=O)c1 (stereo not drawn) | -10.1
CCNc1ncc(C(=O)NC(c2ccccc2)c2ccco2)cn1 (stereo not drawn) | -9.5
O=C([C@@H]1CC[C@@H]2[C@@H](CCN2Cc2cccc(F)c2)O1)N1CCCCO1 | 5.95
CCc1nnc(CN(C)CC2CCCCC2)o1 | -0.472
CN(C)CCN1CCO[C@@H]2CN(C(=O)Cc3ccsc3)CC[C@@H]2C1 | -8.58
CN1CCN(C2CCN(CCOc3ccc(C#N)cc3)CC2)C1=O | -5.65
Cn1cnnc1C1CCCN(C(=O)NCc2ccc3c(c2)OCO3)C1 (stereo not drawn) | -0.469
CCn1nnc2cc(C(=O)N3CCCC3Cn3cc(C)cn3)ccc21 (stereo not drawn) | -19.4
Cc1cc(NCCSc2nccn2C)n2ncnc2n1 | 17.1
CCOC(=O)CC1(Nc2nc(C)nc3c2cnn3C)CCCCC1 | -18
Cc1nc(N)nc(C)c1CC(=O)N1CCC2(CC1)OCCCC2O (stereo not drawn) | -13.9
Cc1cnn(CC2CCCN2C(=O)CCc2ccc3c(c2)OCO3)c1 (stereo not drawn) | 20.8
COc1ccc(-c2nc3c([nH]2)CCNC3)c(OC)c1OC | 1.85
CC(C)CCN1CCc2nc(N3CCOCC3)nc(NC(C)C)c2C1 | -16.5
CS(=O)(=O)N1C[C@@H]2CC[C@H](C1)N(C(=O)CCc1n[nH]c3c1CCCC3)C2 | 27.3
Cc1ccccc1NS(=O)(=O)c1cc2c(c(C(=O)O)c1)OCCO2 | 6.41
COCCN(C(=O)c1cc(-c2ccc(C)s2)[nH]n1)C1CC1 | -3.98
Cc1cc(C)nc(C2(C)CCCN2CCO)n1 (stereo not drawn) | -0.984
OC(CN1CCN(CC(F)F)CC1)c1ccc(Br)cc1 (stereo not drawn) | 1.14

Structure (SMILES) | cytotoxicity at 70.5 h [%]
CS(=O)(=O)N[C@H]1CCO[C@]2(CCN(C(=O)c3ccccn3)C2)C1 | -3.91
Nc1nccnc1C1CN(C(=O)c2cnccn2)CCO1 (stereo not drawn) | -4.25
Cc1cccc(-c2c[nH]c(C3CCCN3)n2)c1 (stereo not drawn) | -7.37
Cn1c(CO)cnc1SC1CCCN(c2ccccc2F)C1=O (stereo not drawn) | 6.04
Cc1ccnc(NS(=O)(=O)c2cc(C(N)=O)n(C)c2)c1 | 0.984
c1ccc(CC2CCN(Cc3ccnc(-c4cccnc4)n3)CC2)cc1 | -3.3
O=C(c1cnc(NCc2sccc2Br)c(Cl)c1)N1CCCCC1 | -9.35
CN(CCC#N)C(=O)Cn1nnnc1C(C)(C)C | -16.8
COC(=O)c1ccc(C2SCC(=O)Nc3ccsc32)cc1 (stereo not drawn) | -8.05
O=C(NCCc1cccnc1)N1CCCC1c1ccsc1 (stereo not drawn) | -0.435
Cn1cnc2c1C(COCc1cccnc1)N(Cc1ccccn1)CC2 (stereo not drawn) | -3.62
CCOc1ccc(C(=O)Nc2c(C)nc3cccc(C)n3c2=O)cc1 | -19.3
CCC(CO)N(Cc1ccccn1)C(=O)c1ccc(=O)[nH]c1 (stereo not drawn) | -4.96
CNC(=O)c1nnc2ccc(N3CCOCC3)cc2n1 | -4.03
CN(Cc1nnc(C2CC2)n1C)S(=O)(=O)c1ccccc1C#N | -15.5
CCC1CN(C(=O)c2cnc(-c3ccccc3)s2)CCO1 (stereo not drawn) | -1.27
CCSc1ncc(CN2CCN(c3ncc(C)c(N)n3)CC2)cn1 | -9.95
CCCc1ncc(CN(C)C2CCCN(CCc3ccccc3)C2)cn1 (stereo not drawn) | -4.41
CCCN1CCCn2nc(CNC(=O)CCc3scnc3C)cc2C1 | -1.73
Cc1n[nH]c(C)c1-c1cc(-c2ccc[nH]2)nc(N)c1C#N | -10.2
CC(C)(C)C(=O)NCCC(=O)NS(=O)(=O)c1cccc(C#N)c1 | 15.8
CCc1n[nH]c(C2CN(Cc3nc(C4CC4)no3)CCO2)n1 (stereo not drawn) | -3.3
O=C(CN1CCc2ccccc2C1)NCc1ccco1 | 3.48

Structure (SMILES) | cytotoxicity at 70.5 h [%]
Cc1csc2nc3n(c(=O)c12)CCN(Cc1c[nH]cn1)CC3 | 0.274
Cc1ccc(C(=O)N2CC[C@H]3[C@H]2CCN3CC2CCOCC2)cn1 | -9.27
CC1N(CC2CC2)C(=O)COC12CCN(C(=O)c1ccno1)CC2 (stereo not drawn) | -4.07
Cn1cc(CN2C[C@@H]3COC[C@]3(CNC(=O)c3ccsc3)C2)cn1 | -5.87
O=C(NCCc1cccnc1)Nc1cc(C(F)(F)F)c[nH]c1=O | 14.6
COC(C(=O)NCc1c(C)nc2cc(=O)[nH]n2c1C)c1ccccc1 (stereo not drawn) | -3.2
Cn1ccnc1CN1CCC(c2nc3ccccc3n2C)CC1 | 28.7
CCN1CCN(CCNC(=O)c2sc(C(C)C)nc2C)CC1 | 0.965
Cc1nc(NCCN2CCCC2=O)cc(C2CN(C)CCO2)n1 (stereo not drawn) | 1.86
Cn1cc(CN2CCCC3(CCN(C(=O)c4ccccn4)C3)C2)cn1 (stereo not drawn) | -12
Cc1noc(C)c1CN1C(=O)[C@H]2CC[C@@H]1CN(Cc1ccc(Cl)cc1)C2 | 8.52
CC(C)CC(NCc1cscn1)c1ccccn1 (stereo not drawn) | -7.87
COc1ccc(-c2nnc(C(C)N3CCC4(CC3)OCCO4)o2)cc1 (stereo not drawn) | -10.3
Cc1nc(C)n(CCNC(=O)C2(C)CC(c3ccccc3)=NO2)n1 (stereo not drawn) | 1.37
O=C(CC1CC1)N[C@@H]1CN(Cc2ccccn2)C[C@@H]2CCCO[C@@H]21 | -0.597
CCCN1C(=O)CC2(CCCNC2)C1=O (stereo not drawn) | -14.9
CCCC(C#N)NC(=O)CCCOc1cccc(C(C)=O)c1 (stereo not drawn) | 18
CNC(=O)c1cn2cc(-c3cccc(Cl)c3)n(CC=C(C)C)c(=O)c2n1 | -5.75
Cc1ncsc1CN(C)Cc1cc2c(cc1OC(F)F)OCO2 | 5.16
Cc1nn(C)c(C)c1C1CCCN1Cc1nc(-c2ccco2)oc1C (stereo not drawn) | -2.24
Cn1cc(CN2CCC3(CC2)CCN(C(=O)c2cscn2)C3)cn1 | -3.37
Cc1cc(Nc2ccc(F)cn2)cc(C2CCN(Cc3ncc[nH]3)C2)n1 (stereo not drawn) | -0.353
O=C(CCOc1cccc(F)c1)N1CCCC(n2cccn2)C1 (stereo not drawn) | -2.03

Structure (SMILES) | cytotoxicity at 70.5 h [%]
CN(C)Cc1ccc(C2CCCCN2C(=O)c2cccc(CO)n2)cc1 (stereo not drawn) | 23.6
CC(=O)c1ccc(C(=O)Nc2ccnc(N(C)C)n2)cc1 | 6.64
CC(CN1CCC2(CC1)N=C(N(C)C)NC2=O)c1ccccc1 (stereo not drawn) | -12.1
CC(C)N1CCC2(C=C(C(=O)NC3CC3)c3ccccc32)CC1 | -1.67
O=C(CCCc1ccccc1)N1CCCC(n2cncn2)C1 (stereo not drawn) | -4.48
CNC(=O)Cn1ccc2ccc(NC(=O)NC(C)C(C)C)cc21 (stereo not drawn) | -9.08
CNS(=O)(=O)CC(=O)N(Cc1c(F)cccc1Cl)C1CC1 | -7.68
CS(=O)(=O)N1CC[C@H](c2nc3ccc(C(F)(F)F)cc3[nH]2)C1 | -4.96
CCN(C(=O)CN1CCCC1c1ccc(F)cc1)c1ccccc1C (stereo not drawn) | -3.01
CCOCC1CN(C(=O)c2cscn2)Cc2nnn(CC3CC3)c21 (stereo not drawn) | -6.01
O=C(c1cccs1)N1CCC(O)(CN2CCc3ccccc3C2)C1 (stereo not drawn) | -2.95
O=C(c1ccoc1)N1CCn2nc(CN3CCSCC3)cc2C1 | 17.6
CCc1noc(C)c1C(=O)N1CCN(c2nc(C)cc(OC)n2)CC1 | 5.53
COCCN1C2(CCN(CC3CC3)C2)c2ccccc2S1(=O)=O (stereo not drawn) | 4.8
CCc1nnc2n1CCN(C(=O)CCc1ccc(C)c(Cl)c1)C2 | -1.97
CCOC1CCCN(C(=O)c2sccc2-n2cnnn2)C1 (stereo not drawn) | -2.74
CCOC(=O)N1CCN(C(=O)CCn2cccc2)CC1 | 7.81
c1ccc(Cn2ccnc2CNCC2CCCN2c2cccnn2)cc1 (stereo not drawn) | 4.91
CC(C)CCN1CCc2c(C(=O)N(C)Cc3ccccn3)nn(C)c2C1 | -2.57
Fc1ccc(N2CCCN(Cc3ccc(-c4cc[nH]n4)o3)CC2)cc1 | -0.367
Cc1noc(NC(=O)c2ccccc2)n1 | -5.17
Cc1ccoc1C(=O)N1CC[C@H]2[C@H](C[C@@H](CN3CCCC3)N2C)C1 | 4.09
OCc1csc(N2CCCC(COc3cccc(F)c3)C2)n1 (stereo not drawn) | -9.22

Structure (SMILES) | cytotoxicity at 70.5 h [%]
CC(C)Oc1cc(N2CCC(C(N)=O)CC2)nc(N)n1 | -3.58
Cc1cc(-c2cc(S(=O)(=O)N3C[C@H](C4CC4)[C@@H](N)C3)c(C)s2)on1 | 19.4
CC(=O)Nc1cc(CCC2CCN(C(=O)c3ccccn3)CC2)ccn1 | -14.2
Cc1ccc(C(NC(=O)CCCN2CCCCC2)C(=O)O)cc1 (stereo not drawn) | -12.7
COc1ccc(CN2C[C@@H](CN(C)CCO)[C@@H](CO)C2)cc1Cl | -7.1
O=C(c1ccccc1N1CCOCC1)N1CCCC1Cn1cccn1 (stereo not drawn) | -4.2
O=C(O)c1cn(CC2CCCN(c3cnc4ccccc4n3)C2)nn1 (stereo not drawn) | -3.54
CCCS(=O)(=O)C(C)C(=O)Nc1ccc2oc(C3CC3)nc2c1 (stereo not drawn) | -2.1
COCCn1cc2c(n1)C(CNCc1ccc(F)cc1)OCC2 (stereo not drawn) | 0.574
Cc1nnsc1C(=O)N1CCCC(n2nnc3cc(F)ccc32)C1 (stereo not drawn) | -5.58
Cn1ccnc1COc1ccc(COC(=O)C2CCCO2)cc1 (stereo not drawn) | 3.75
CC(C)CC1SCC(=O)Nc2c1cnn2C1CCCC1 (stereo not drawn) | -18.7
COc1ccc(-c2cc(C3CCNCC3)nc(C)n2)cc1 | -6.57
COc1ccc(Cl)cc1CS(=O)(=O)Cc1nc(C)no1 | 15.2
CN(C)C(=O)c1ccc(CNc2c(Cl)cccc2C#N)cc1 | 3.41
Cc1n[nH]c(C)c1-c1nccnc1CC1CCCN(C)C1 (stereo not drawn) | -7.42
CN(C)Cc1noc2c1CN(C(=O)c1ccncc1)CC2 | 5.83
C[C@@]1(O)CCN(Cc2cc[nH]n2)C[C@H]1Oc1cccc(F)c1 | -2.59
O=S(=O)(CC1CCCCO1)Nc1cnn(Cc2ccccc2)c1 (stereo not drawn) | -7.62
c1ccc([C@@H]2CN(Cc3ccncc3)C[C@H]2c2cc[nH]n2)cc1 | -1.08
CN(Cc1ccco1)[C@@H]1CN(Cc2ccc(F)cc2)[C@@H]2CCCO[C@H]12 | 6.23

— ChEMBL document CHEMBL3507680, “University of Dundee, Gates Library screen for HepG2 cell viability”
